# Reference: PMC6351562, “Structure, function, and inhibition of drug reactivating human gut microbial β-glucuronidases” (Scientific Reports, 2019)
# Read-outs that look alike come from different tables or passages of the source.
# Key:
# E. coli GUS (EcGUS) [1] = molecular target: T1, E. coli GUS (EcGUS) (Escherichia coli, UniProt P05804); assay: In vitro inhibition assay (pNPG hydrolysis); format: biochemical; conditions: for IC50: pNPG 900 µM, 1 hour end point
# [2] = molecular target: T2, Eubacterium eligens GUS (EeGUS) (Lachnospira eligens, UniProt C4Z6Z2); assay: In vitro inhibition assay (pNPG hydrolysis); format: biochemical; conditions: pNPG 900 µM
# T2 sequence (C4Z6Z2 1-611): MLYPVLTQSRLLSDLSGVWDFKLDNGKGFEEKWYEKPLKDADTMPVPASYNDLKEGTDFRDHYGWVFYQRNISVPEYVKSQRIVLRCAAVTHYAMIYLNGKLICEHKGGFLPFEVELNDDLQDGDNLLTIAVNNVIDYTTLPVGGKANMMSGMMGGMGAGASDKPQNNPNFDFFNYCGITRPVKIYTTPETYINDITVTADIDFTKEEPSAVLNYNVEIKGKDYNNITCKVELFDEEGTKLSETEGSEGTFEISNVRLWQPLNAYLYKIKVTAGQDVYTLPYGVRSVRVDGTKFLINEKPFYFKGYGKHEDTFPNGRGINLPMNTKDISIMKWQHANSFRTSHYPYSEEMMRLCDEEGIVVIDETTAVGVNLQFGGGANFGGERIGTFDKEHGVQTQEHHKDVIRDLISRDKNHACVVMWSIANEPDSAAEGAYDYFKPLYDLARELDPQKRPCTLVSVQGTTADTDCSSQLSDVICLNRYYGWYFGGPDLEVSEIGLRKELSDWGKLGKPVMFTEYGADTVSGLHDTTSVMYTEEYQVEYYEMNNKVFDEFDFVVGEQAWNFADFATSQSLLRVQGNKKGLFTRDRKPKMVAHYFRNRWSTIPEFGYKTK
# [3] = molecular target: T3, Streptococcus agalactiae GUS (SaGUS) (Streptococcus agalactiae serotype V, UniProt Q8E0N2); assay: In vitro inhibition assay (pNPG hydrolysis); format: biochemical; conditions: for IC50: pNPG 900 µM
# T3 construct: 6x His; made in house
# T3 sequence (Q8E0N2 whole entry): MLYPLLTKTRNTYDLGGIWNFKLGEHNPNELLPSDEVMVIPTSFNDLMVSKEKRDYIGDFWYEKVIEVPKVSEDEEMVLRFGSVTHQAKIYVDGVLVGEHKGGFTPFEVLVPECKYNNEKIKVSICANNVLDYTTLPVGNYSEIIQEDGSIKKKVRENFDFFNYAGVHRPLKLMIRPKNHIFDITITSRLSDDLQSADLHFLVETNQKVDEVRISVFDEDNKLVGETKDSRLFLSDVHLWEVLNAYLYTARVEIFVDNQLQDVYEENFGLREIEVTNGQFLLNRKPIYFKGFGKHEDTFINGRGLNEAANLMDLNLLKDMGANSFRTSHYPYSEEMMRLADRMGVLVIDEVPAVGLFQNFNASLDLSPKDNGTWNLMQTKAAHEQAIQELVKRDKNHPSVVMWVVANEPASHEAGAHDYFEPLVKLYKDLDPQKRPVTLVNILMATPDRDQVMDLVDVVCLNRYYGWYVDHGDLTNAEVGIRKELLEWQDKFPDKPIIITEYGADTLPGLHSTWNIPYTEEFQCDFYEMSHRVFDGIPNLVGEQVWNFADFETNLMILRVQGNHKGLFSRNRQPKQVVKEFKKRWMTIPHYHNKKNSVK
# [4] = molecular target: T4, Ruminococcus gnavus GUS (RgGUS) (Mediterraneibacter gnavus, UniProt A0A2N5PVZ8); assay: In vitro inhibition assay (pNPG hydrolysis); format: biochemical
# T4 sequence (A0A2N5PVZ8 1-603): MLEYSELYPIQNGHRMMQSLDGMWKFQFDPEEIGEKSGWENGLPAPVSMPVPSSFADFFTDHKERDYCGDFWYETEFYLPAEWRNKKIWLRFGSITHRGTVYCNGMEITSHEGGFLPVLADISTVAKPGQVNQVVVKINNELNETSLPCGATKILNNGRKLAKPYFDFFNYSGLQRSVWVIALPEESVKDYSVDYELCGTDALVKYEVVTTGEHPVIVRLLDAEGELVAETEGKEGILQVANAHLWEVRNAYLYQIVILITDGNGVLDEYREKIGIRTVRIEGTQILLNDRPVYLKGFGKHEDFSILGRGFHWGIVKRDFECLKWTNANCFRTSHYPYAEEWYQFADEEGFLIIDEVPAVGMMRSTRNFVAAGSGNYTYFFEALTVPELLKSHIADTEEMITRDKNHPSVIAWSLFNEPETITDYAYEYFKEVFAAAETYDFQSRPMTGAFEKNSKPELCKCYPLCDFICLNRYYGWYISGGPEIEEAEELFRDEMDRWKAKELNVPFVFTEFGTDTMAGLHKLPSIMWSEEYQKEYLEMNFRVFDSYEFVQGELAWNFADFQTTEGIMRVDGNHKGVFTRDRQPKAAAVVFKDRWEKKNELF
# [5] = molecular target: T5, Bacteroides fragilis GUS (BfGUS) (Bacteroides fragilis, UniProt Q5LIC7); assay: In vitro inhibition assay (pNPG hydrolysis); format: biochemical
# T5 sequence (Q5LIC7 whole entry): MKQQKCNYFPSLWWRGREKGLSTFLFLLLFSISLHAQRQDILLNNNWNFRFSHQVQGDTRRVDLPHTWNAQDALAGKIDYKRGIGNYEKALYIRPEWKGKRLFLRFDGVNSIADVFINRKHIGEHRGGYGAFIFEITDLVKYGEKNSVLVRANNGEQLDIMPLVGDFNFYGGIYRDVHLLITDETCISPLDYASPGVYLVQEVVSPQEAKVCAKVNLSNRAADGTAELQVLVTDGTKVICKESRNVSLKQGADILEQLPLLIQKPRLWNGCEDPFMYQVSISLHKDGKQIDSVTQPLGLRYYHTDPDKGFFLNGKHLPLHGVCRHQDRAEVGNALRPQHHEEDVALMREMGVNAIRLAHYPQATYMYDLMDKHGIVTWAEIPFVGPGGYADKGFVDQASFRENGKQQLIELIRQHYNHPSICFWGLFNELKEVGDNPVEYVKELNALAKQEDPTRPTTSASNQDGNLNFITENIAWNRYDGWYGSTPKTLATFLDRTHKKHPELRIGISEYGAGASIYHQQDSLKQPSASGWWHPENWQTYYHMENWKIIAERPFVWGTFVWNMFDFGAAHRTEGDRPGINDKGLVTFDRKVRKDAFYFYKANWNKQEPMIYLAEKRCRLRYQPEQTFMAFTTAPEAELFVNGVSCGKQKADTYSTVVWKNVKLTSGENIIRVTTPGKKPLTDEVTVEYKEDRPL
# [6] = molecular target: T6, Bacteroides uniformis GUS (BuGUS) (Bacteroides uniformis, UniProt A0A078SUX9); assay: In vitro inhibition assay (pNPG hydrolysis); format: biochemical
# T6 sequence (A0A078SUX9 32-886): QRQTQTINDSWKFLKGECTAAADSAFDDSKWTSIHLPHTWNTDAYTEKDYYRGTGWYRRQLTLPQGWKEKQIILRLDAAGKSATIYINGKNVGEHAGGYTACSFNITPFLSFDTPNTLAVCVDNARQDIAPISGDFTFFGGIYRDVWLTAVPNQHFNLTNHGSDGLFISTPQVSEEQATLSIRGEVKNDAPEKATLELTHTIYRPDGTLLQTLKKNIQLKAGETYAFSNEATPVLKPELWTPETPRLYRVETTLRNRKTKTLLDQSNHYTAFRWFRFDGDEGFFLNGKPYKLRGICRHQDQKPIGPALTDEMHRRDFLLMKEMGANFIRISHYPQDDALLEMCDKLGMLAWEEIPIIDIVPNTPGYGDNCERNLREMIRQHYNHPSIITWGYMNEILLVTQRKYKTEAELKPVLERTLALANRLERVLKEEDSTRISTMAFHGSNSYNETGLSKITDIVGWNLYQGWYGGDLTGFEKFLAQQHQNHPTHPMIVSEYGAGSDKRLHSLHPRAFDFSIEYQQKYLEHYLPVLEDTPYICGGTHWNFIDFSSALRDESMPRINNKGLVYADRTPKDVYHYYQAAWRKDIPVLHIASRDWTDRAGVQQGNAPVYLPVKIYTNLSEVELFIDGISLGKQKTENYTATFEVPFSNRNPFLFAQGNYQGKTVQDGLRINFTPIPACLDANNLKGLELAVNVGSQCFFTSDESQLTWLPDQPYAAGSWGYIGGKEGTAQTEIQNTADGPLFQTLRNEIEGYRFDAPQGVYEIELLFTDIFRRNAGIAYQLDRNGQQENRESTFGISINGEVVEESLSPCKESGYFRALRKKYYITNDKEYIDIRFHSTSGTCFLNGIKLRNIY
# EcGUS F365A = format: biochemical, E. coli; conditions: IC50 curves, Fig. S14
# E. coli GUS (EcGUS) [7] = molecular target: T1, E. coli GUS (EcGUS); parameters: method as in PMID 21051639, PMID 26364932, PMID 30062115; conditions: earlier work; cited from earlier work
# [8] = molecular target: T5, Bacteroides fragilis GUS (BfGUS); parameters: method as in PMID 21051639, PMID 26364932, PMID 30062115; conditions: earlier work; cited from earlier work
# [9] = read-out: inhibition at 100 µM Inhibitor 1, 100 µM, pH 6.5 and 7.5
# [10] = Inhibitor 1 (IC50, nM) pH 6.5, pH 6.5
# [11] = Inhibitor 1 (IC50, nM) pH 7.5, pH 7.5
# [12] = read-out: Inhibitor 1 (IC50, nM) pH 7.5, pH 7.5, pNPG 900 µM
# [13] = pH 6.5, 1 hour end point, read-out: UNC10201652 (IC50, nM) pH 6.5
# [14] = pH 7.5, 1 hour end point, read-out: UNC10201652 (IC50, nM) pH 7.5
# [15] = pH 7.5, pNPG 900 µM, read-out: UNC10201652 (IC50, nM) pH 7.5
# [16] = read-out: UNC10201652 (IC50, nM) pH 6.5
# T1 sequence (P05804 whole entry): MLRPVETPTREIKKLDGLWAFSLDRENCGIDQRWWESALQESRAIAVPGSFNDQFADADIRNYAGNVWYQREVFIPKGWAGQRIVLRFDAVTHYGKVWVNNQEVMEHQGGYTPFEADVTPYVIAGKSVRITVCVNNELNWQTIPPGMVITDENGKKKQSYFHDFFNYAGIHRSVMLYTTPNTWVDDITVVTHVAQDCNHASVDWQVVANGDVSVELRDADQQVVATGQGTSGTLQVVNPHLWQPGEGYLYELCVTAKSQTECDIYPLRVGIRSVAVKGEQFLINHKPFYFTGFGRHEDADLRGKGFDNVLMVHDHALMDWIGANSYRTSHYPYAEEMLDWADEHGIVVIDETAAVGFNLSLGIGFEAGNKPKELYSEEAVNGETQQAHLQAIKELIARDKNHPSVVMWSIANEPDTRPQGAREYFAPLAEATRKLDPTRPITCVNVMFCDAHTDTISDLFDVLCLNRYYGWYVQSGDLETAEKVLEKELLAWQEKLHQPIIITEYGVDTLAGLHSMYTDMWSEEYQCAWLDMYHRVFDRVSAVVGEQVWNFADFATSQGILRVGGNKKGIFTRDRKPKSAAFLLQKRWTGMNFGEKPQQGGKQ
structure (smiles),measurement,setting,value
CCOc1ccc(NC(=S)N(CCO)Cc2cc3cc(C)cc(C)c3[nH]c2=O)cc1 [Inhibitor 1],inhibition at 100 µM,E. coli GUS (EcGUS) [1]; [9],≥ 80%
same,IC50,[2]; [10],> 100000 nM
same,IC50,[2]; [11],> 100000 nM
same,IC50,[3]; [10],> 25000 nM
same,IC50,[3]; [11],> 25000 nM
same,inhibition at 100 µM,[3]; [9],≥ 80%
same,IC50,[4],> 100000 nM
same,IC50,[4]; [12],> 100000 nM
same,IC50,[5],> 100000 nM
same,IC50,[5]; [12],> 100000 nM
same,IC50,[6],> 100000 nM
same,IC50,[6]; [12],> 100000 nM
same,potency toward EcGUS F365 mutant compared with WT,EcGUS F365A,less potent
same,inhibition of EcGUS (in words),E. coli GUS (EcGUS) [7],potent
same,inhibition of BfGUS (in words),[8],did not inhibit
C1CCc2c(c(N3CCOCC3)nc3sc4c(N5CCNCC5)nnnc4c23)C1 [UNC10201652],decrease in potency from pH 7.5 to pH 6.5,"E. coli GUS (EcGUS) [1]; UNC10201652, IC50 pH 6.5 vs pH 7.5",3 fold
same,IC50,"E. coli GUS (EcGUS) [1]; pH 6.5, read-out: UNC10201652 (IC50, nM) pH 6.5",310 ± 20 nM
same,IC50,"E. coli GUS (EcGUS) [1]; pH 7.5, read-out: UNC10201652 (IC50, nM) pH 7.5",100 ± 8 nM
same,potency relative to Inhibitor 1,"E. coli GUS (EcGUS) [1]; pH 7.5, times more potent than Inhibitor 1",19 times
same,IC50,[2]; [13],1900 ± 100 nM
same,IC50,[2]; [14],410 ± 30 nM
same,IC50,[3]; [13],450 ± 30 nM
same,IC50,[3]; [14],133 ± 3 nM
same,IC50,[4]; [15],> 100000 nM
same,IC50,[4]; [16],> 100000 nM
same,inhibition (in words),"[5]; UNC10201652, text in picture of Fig. 7b",No Inhibition
same,IC50,[5]; [15],> 100000 nM
same,IC50,[5]; [16],> 100000 nM
same,inhibition (in words),"[6]; UNC10201652, text in picture of Fig. 7c",No Inhibition
same,IC50,[6]; [15],> 100000 nM
same,IC50,[6]; [16],> 100000 nM
same,potency toward EcGUS F365 mutant compared with WT,EcGUS F365A,less potent
same,inhibition of EcGUS (in words),E. coli GUS (EcGUS) [7],potent
same,inhibition of BfGUS (in words),[8],did not inhibit
